# Where “and” joins values, the source holds several entries; their conditions need not be identical. Identical values can stand only once. Inconclusive results and toxic doses are left out.
# Test system: CD2F1 mice, L1210 leukemia ip, survival T/C
# Assay: NCI In Vivo Anticancer Drug Screen. Data for tumor model L1210 Leukemia (intraperitoneal) in CD2F1 (CDF1) mice
# Details: higher = longer survival
# Summary of the method: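 Vehicle-treated tumor-bearing mice served as controls (C) for compound-treated mice (T). Reported figure is T divided by C.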
structure (smiles),measurement,setting,value
O=C1NC(=O)C2C3C=CC(C12)C1C2C(=O)NC(=O)C2C31 (centres undefined),T/C,"endpoint: mean survival time, dose: 12.5 mg/kg/injection, schedule: Q01DX009 (ip), vehicle: saline with Tween-80",115 % of control
same,T/C,"endpoint: mean survival time, dose: 12.5 mg/kg/injection, schedule: Q01DX009 (oral), vehicle: saline with Tween-80",100 % of control
same,T/C,"endpoint: mean survival time, dose: 25.0 mg/kg/injection, schedule: Q01DX009 (oral), vehicle: saline with Tween-80",96 % of control
same,T/C,"endpoint: mean survival time, dose: 50.0 mg/kg/injection, schedule: Q01DX009 (ip), vehicle: saline with Tween-80",164 % of control
same,T/C,"endpoint: mean survival time, dose: 50.0 mg/kg/injection, schedule: Q01DX009 (oral), vehicle: saline with Tween-80",101 % of control
same,T/C,"endpoint: mean survival time, dose: 100.0 mg/kg/injection, schedule: Q01DX009 (ip), vehicle: saline with Tween-80",188 % of control
same,T/C,"endpoint: mean survival time, dose: 100.0 mg/kg/injection, schedule: Q01DX009 (oral), vehicle: saline with Tween-80",104 % of control
same,T/C,"endpoint: mean survival time, dose: 200.0 mg/kg/injection, schedule: Q01DX009 (oral), vehicle: saline with Tween-80",101 % of control
same,T/C,"endpoint: mean survival time, dose: 400.0 mg/kg/injection, schedule: Q01DX009 (oral), vehicle: saline with Tween-80",111 % of control
same,T/C,"endpoint: median survival time, dose: 2.6 mg/kg/injection, schedule: Q03HX024 (ip), vehicle: clinical formulation",110 % of control
same,T/C,"endpoint: median survival time, dose: 3.12 mg/kg/injection, schedule: Q01DX009 (ip), vehicle: clinical formulation",106 % of control
same,T/C,"endpoint: median survival time, dose: 3.12 mg/kg/injection, schedule: Q01DX009 (ip), vehicle: saline with Tween-80",108 % of control
same,T/C,"endpoint: median survival time, dose: 6.0 mg/kg/injection, schedule: Q03HX027 (ip), vehicle: saline",112 % of control
same,T/C,"endpoint: median survival time, dose: 6.25 mg/kg/injection, schedule: Q01DX009 (ip), vehicle: clinical formulation",108 % of control
same,T/C,"endpoint: median survival time, dose: 6.9 mg/kg/injection, schedule: Q01DX009 (ip), vehicle: clinical formulation",102 % of control
same,T/C,"endpoint: median survival time, dose: 7.8 mg/kg/injection, schedule: Q03HX008 (ip), vehicle: clinical formulation",162 % of control
same,T/C,"endpoint: median survival time, dose: 10.4 mg/kg/injection, schedule: Q03HX024 (ip), vehicle: clinical formulation",162 % of control
same,T/C,"endpoint: median survival time, dose: 11.8 mg/kg/injection, schedule: Q01DX009 (ip), vehicle: water",108 % of control
same,T/C,"endpoint: median survival time, dose: 12.5 mg/kg/injection, schedule: Q01DX005 (ip), vehicle: clinical formulation",100 % of control
same,T/C,"endpoint: median survival time, dose: 12.5 mg/kg/injection, schedule: Q01DX005 (ip), vehicle: other",101 % of control and 106 % of control
same,T/C,"endpoint: median survival time, dose: 12.5 mg/kg/injection, schedule: Q01DX005 (iv), vehicle: clinical formulation",108 % of control
same,T/C,"endpoint: median survival time, dose: 12.5 mg/kg/injection, schedule: Q01DX005 (iv), vehicle: other",103 % of control and 104 % of control
same,T/C,"endpoint: median survival time, dose: 12.5 mg/kg/injection, schedule: Q01DX009 (ip), vehicle: clinical formulation",112 % of control
same,T/C,"endpoint: median survival time, dose: 12.5 mg/kg/injection, schedule: Q01DX009 (ip), vehicle: saline with Tween-80",116 % of control
same,T/C,"endpoint: median survival time, dose: 12.5 mg/kg/injection, schedule: Q01DX009 (oral), vehicle: other",100 % of control
same,T/C,"endpoint: median survival time, dose: 13.8 mg/kg/injection, schedule: Q01DX009 (ip), vehicle: clinical formulation",101 % of control
same,T/C,"endpoint: median survival time, dose: 14.0 mg/kg/injection, schedule: Q01DX009 (ip), vehicle: water",117 % of control
same,T/C,"endpoint: median survival time, dose: 16.7 mg/kg/injection, schedule: Q03HX027 (ip), vehicle: saline",152 % of control
same,T/C,"endpoint: median survival time, dose: 18.0 mg/kg/injection, schedule: Q01DX009 (ip), vehicle: clinical formulation",110 % of control
same,T/C,"endpoint: median survival time, dose: 18.0 mg/kg/injection, schedule: Q01DX009 (ip), vehicle: saline",103 % of control
same,T/C,"endpoint: median survival time, dose: 18.0 mg/kg/injection, schedule: Q01DX009 (ip), vehicle: water",113 % of control
same,T/C,"endpoint: median survival time, dose: 19.7 mg/kg/injection, schedule: Q01DX009 (ip), vehicle: water",107 % of control
same,T/C,"endpoint: median survival time, dose: 20.8 mg/kg/injection, schedule: Q03HX024 (ip), vehicle: clinical formulation",114 % of control
same,T/C,"endpoint: median survival time, dose: 20.8 mg/kg/injection, schedule: Q04DX003 (ip), vehicle: clinical formulation",121 % of control
same,T/C,"endpoint: median survival time, dose: 23.3 mg/kg/injection, schedule: Q01DX009 (ip), vehicle: water",150 % of control
same,T/C,"endpoint: median survival time, dose: 25.0 mg/kg/injection, schedule: Q01DX001 (iv), vehicle: other",100 % of control
same,T/C,"endpoint: median survival time, dose: 25.0 mg/kg/injection, schedule: Q01DX005 (ip), vehicle: clinical formulation",114 % of control
same,T/C,"endpoint: median survival time, dose: 25.0 mg/kg/injection, schedule: Q01DX005 (ip), vehicle: other",108 % of control
same,T/C,"endpoint: median survival time, dose: 25.0 mg/kg/injection, schedule: Q01DX005 (iv), vehicle: other",101 % of control and 109 % of control
same,T/C,"endpoint: median survival time, dose: 25.0 mg/kg/injection, schedule: Q01DX005 (oral), vehicle: other",98 % of control
same,T/C,"endpoint: median survival time, dose: 25.0 mg/kg/injection, schedule: Q01DX009 (ip), vehicle: clinical formulation",122 % of control
same,T/C,"endpoint: median survival time, dose: 25.0 mg/kg/injection, schedule: Q01DX009 (oral), vehicle: other",98 % of control
same,T/C,"endpoint: median survival time, dose: 27.7 mg/kg/injection, schedule: Q01DX009 (ip), vehicle: clinical formulation",154 % of control
same,T/C,"endpoint: median survival time, dose: 27.8 mg/kg/injection, schedule: Q03HX027 (ip), vehicle: saline",183 % of control

# — PubChem BioAssay AID256 (DTP/NCI, 2004)
